Experimental data from patent US6194465A, “Benzamide therapeutics for the treatment of inflammatory bowel disease” (priority 1999, dated 2001).
“Also recorded” adds a separate entry of the source. Where two headings read alike, the source gives them in different places.

Columns and labels:
[1] = Absolute oral bioavailability (AUC oral vs IV, 20 mg/kg); format: in vivo, rats; settings: rat, blood
Method: Blood concentrations were determined at 0, 0.083, 0.15, 0.5, 1, 2, 4, 8, and 24 hours post-IV dose and 0, 0.5, 1, 2, 4 and 8 hours post-oral dose. Four animals were dosed orally and four animals were dosed intravenously.
The blood samples were analyzed by HPLC. Detection was by UV at 262 nm. Responses were converted to concentrations by comparison to responses from calibration standards injected onto the column. The resulting concentrations were used to calculate the AUC.

TNBS-induced colitis = assay: TNBS model of IBD, Compound A given before TNBS (morphology, tissue weight); format: in vivo, Male Sprague-Dawley rats
From the text: The trinitrobenzene sulphonic acid ("TNBS") model is one of the standard IBD models used in IBD discovery research, and has been extensively evaluated in rodents. A single enema of TNBS induces a prolonged colonic inflammatory response (up to several weeks) that is transmural and is accompanied by oxidative damage as evidenced by an increase in myeloperoxidase ("MPO") activity. Furthermore, the inflammation is characterized by discrete areas of acute necrosis, inflammation and muscle thickening. Agents with anti-inflammatory effects in patients with IBD show efficacy in this model. Although the mechanism by which TNBS induces an inflammatory response is unknown, it is thought to have an immunological basis.
(§1) Male Sprague-Dawley rats (200-250 g) were housed in standard cages (2 per cage) and fed rat chow and tap water ad libitum. After an overnight fast, rats were brought into the laboratory and randomized into treatment groups. Colitis was induced by intrarectal administration of 0.5 ml of TNBS solution (50 mg/kg in 50% ethanol) using a 1 ml syringe attached to a 5 cm polyethylene catheter. Control animals received saline (0.9%) or a 1 % methyl cellulose suspension at identical time points.
Three days after TNBS administration, the rats were sacrificed and the colons excised and opened longitudinally.
The weights of each 5 cm colonic segment were also recorded to assess inflammatory induced edema.
(§2) For PO (oral) dosing, Compound A was administered by oral gavage 30 mg/kg as a 1% carboxy methyl cellulose ("CMC") suspension 1 hour prior to the administration of TNBS. Control rats were given CMC only. For IV (intravenous) dosing, Compound A was administered 30 mg/kg by tail vein injection in a 75% PEG/25 % water solution 1 hour prior to administration of TNBS. Control rats were given an injection of 75% PEG/25 % water only. Six rats were dosed for each route of administration.
An additional study was conducted varying the amount of Compound A administered to the rats. Doses of 10 mg/kg, 30mg/kg, and 70 mg/kg were given by oral administration.
A study was run to determine whether or not the effectiveness of Compound A was dependent upon when it was administered relative to the TNBS administration.
Groups of rats (N=11/group) were administered increasing doses of Compound A (0-90 mg/kg-po) 1 hour prior to TNBS enema. In addition to macroscopic assessment, the wet weight of the tissue was also measured as an additional secondary efficacy parameter.

DSS-induced colitis = assay: Dose-response in the Mouse Dextran Sulfate (DSS) model; format: in vivo
Method: To determine the dose-response relationship of Compound A in the DSS Mouse Model, the following procedure was used.
Experimental conditions and statistical analyses were the same as the Mouse Dextran Sulfate IBD Model, except four groups of mice (n=8-10/group) were used. Animals were dosed orally with either Compound A (3, 10 or 30 mg/kg) or vehicle alone. In addition, the following procedure was introduced to evaluate the histology in the animals:
5-6 slices/segment with 15-18 total pieces/colon
Score for extent of damage: 0=1-25% involvement, 1=26-50% involvement,
0=intact crypt, 1=loss of 1/3 crypt, 2=loss of 2/3 crypt, 3=loss of entire crypt with surface epithelium intact, 4=loss of entire crypt and erosion of surface epithelium
0=normal, 1=focal inflammatory cell infiltrate including PMNs, 2=inflammatory cell infiltration, gland dropout and crypt abscess, 3=mucosal ulceration
Single, evaluator (qualified pathologist) blinded to the treatment conditions.

[2] = test system: Myeloperoxidase (MPO) activity; assay: MPO activity of colon tissue in TNBS model (IV dosing); format: in vivo, Male Sprague-Dawley rats
Method: as §1
Myeloperoxidase ("MPO") activity is measured as an index of the intensity of the inflammatory response. In order to determine the MPO activity, a blind study of 300 mg samples of colon tissue were analyzed. This assay uses the spectrophotometric method of Castro et al.
as §2
MPO activity measurements were performed only for samples from the IV administration.

[3] = PK parameter estimates, 30 mg/kg po (Table 1); format: in vivo, rats; settings: additional series of bioavailability experiments
Method: The bioavailability of compound N is depicted in FIG. 10 as well. |(NRTs Dosed 30 mg/kg po in 1% Methyl Cellulose, n = 3 rats/NRT)

[4] = test system: TNBS-induced colonic tissue damage; assay: TNBS model, dosing after TNBS treatment (morphology, MPO, wet weight); format: in vivo, rats
Method: As a follow-on set of experiments we investigated the effects of multiple doses of Compound A administered after TNBS treatment.
Experimental conditions were similar to those described above except that rats were given either Compound A (30 mg/kg PO) or vehicle, administered 4, 8 and 24 hours after TNBS treatment for at total of 3 doses.
In another series of experiments to investigate the duration of action of Compound A was designed to advance previous observations and determine whether a single dose of 90 mg/kg po Compound A given either 4, 8, or 24 hrs after the TNBS enema would reduce the colonic damage.
Experimental conditions were similar to those described above except that rats were given a single large dose of Compound A (90 mg/kg PO) or vehicle either 4, 8 or 24 hours after TNBS treatment.

[5] = 0-90 mg/kg po, 1 hour prior to TNBS
[6] = 30 mg/kg PO at 4, 8 and 24 hours after TNBS

With `CC(=O)Nc1ccc(C(=O)NC(C)(C)C)cc1` [Compound A, N-tert-butyl-4-acetamidobenzamide] the bioavailability ([1]; in rats, as restated, read-out: bioavailability) was 50%, the bioavailability ([1]; oral 20 mg/kg in 1% methyl cellulose vs IV 20 mg/kg in 75% PEG, read-out: absolute bioavailability) was 52% and the “colonic morphological score (in words)” value (TNBS-induced colitis; [5]) was “dose-dependent reduction”. The “wet weight of colonic segments (in words)” value (TNBS-induced colitis; [5]) was “dose-dependent reduction”, the “protective effects, 10 mg/kg” value (TNBS-induced colitis; 10 mg/kg oral) was “minimal protective effects” and the “severity of IBD symptoms / protection from TNBS damage, IV” value (TNBS-induced colitis; 30 mg/kg IV, 1 hour before TNBS) was “decreases the severity of IBD symptoms; also recorded: protected from the damage induced by TNBS; also recorded: greater protection seen following IV administration; also recorded: intravenous administration of Compound A also provides protection”. The “protective effects, 30 mg/kg” value (TNBS-induced colitis; 30 mg/kg oral) was “increased protective effects”, the “severity of IBD symptoms / protection from TNBS damage, PO” value (TNBS-induced colitis; 30 mg/kg po, 1 hour before TNBS) was “decrease the severity of IBD symptoms; also recorded: protected from the damage induced by TNBS” and the “protection, administered 120 mins before TNBS” value (TNBS-induced colitis; 30 mg/kg po, 120 mins pretreatment) was “less protective compared to the 60 min pretreatment period”. For the same molecule, the “protective effects, 70 mg/kg” value (TNBS-induced colitis; 70 mg/kg oral) was “strongest protective effect”, the “protection, administered 1 hour before TNBS” value (TNBS-induced colitis; 1 hour (60 min) pretreatment) was “best protection” and the “tissue weight (in words)” value (TNBS-induced colitis; IV and PO, 30 mg/kg) was “suggest protection, but not as convincingly as the morphology and MPO activity results”. The “activity in protecting colon tissue, summary (in words)” value (TNBS-induced colitis; IV or PO) was “good activity in protecting colon tissue from damage”, the “protection, administered 240 mins before TNBS” value (TNBS-induced colitis; single dose, 240 mins pretreatment) was “little protection against morphological changes” and the “protective effect, significance by day” value (DSS-induced colitis; oral) was “statistically significant on days 3, 4, 5 and 7”. The “DAI score, protective effect (in words)” value (DSS-induced colitis; oral, 3, 10 or 30 mg/kg) was “marked dose-dependent protective effect”, the “DAI score, significance by dose” value (DSS-induced colitis; oral, 3, 10 or 30 mg/kg) was “statistically significant at 30 mg/kg” and the “MPO values (in words), dose-response study” value (DSS-induced colitis; oral, 3, 10 or 30 mg/kg) was “the protection was not statistically significant”. For the same molecule, the “wet weight (in words), dose-response study” value (DSS-induced colitis; oral, 3, 10 or 30 mg/kg) was “the protection was not statistically significant”, the “protection from TNBS insult as measured by MPO activity (in words)” value ([2]; IV) was “provided protection from the TNBS insult” and the “MPO Activity” value ([2]; IV treatment, 30 mg/kg, TNBS model) was 1.77 ± 0.53 units/mg. For the same molecule, the “bioavailability (in words)” value [3] was “excellent bioavailability”, the “MPO activity, 3 doses after TNBS (in words)” value [4, 6] was “decrease in MPO activity” and the “colonic tissue damage, 3 doses after TNBS” value [4, 6] was “significantly reduced”. For the same molecule, the “tissue wet weight, 3 doses after TNBS (in words)” value [4, 6] was “reduction in tissue wet weight” and the “inflammatory damage, single dose after TNBS” value ([4]; 90 mg/kg po, 4, 8 or 24 hours after TNBS) was “prevents inflammatory damage; also recorded: less efficacy than the 3 dose (30 mg/kg) oral regimen”.
